In patent publication US7972785B2, “Biomarkers for liver fibrotic injury” (Industrial Technology Research Institute (ITRI), priority 2006, dated 2011):

Test system: rat liver proteins (vimentin, fibrinogen)
Test: iTRAQ proteomics / Western blot of liver protein of DMN-treated rats
Type: in vivo
Conditions: DMN-induced rats
Method: The liver tissues of 6 control and 6 DMN-treated rats were used to perform duplicate iTRAQ labeling experiments. Liver tissue was frozen in liquid nitrogen and then pulverized to powder using a mortar and pestle pre-cooled with liquid nitrogen. Then, the liquid nitrogen was allowed to evaporate, and the powdered tissue was separated into tubes and stored at −80° C. Twenty volumes (w/v) of lysis buffer (containing 2% (w/v) SDS in 20 mM phosphate buffer at pH 7.6) was added to the powdered tissue and incubated at room temperature for 1 hour. […]
The total protein contents were determined using the Coomassie Plus Protein Assay Reagent (PIERCE, Rockford, Ill., U.S.A.). […]
Peptides with different isobaric tags were pooled and acidified by mixing with 10 mM phosphoric acid (in 25% (v/v) acetonitrile and 75% H2O) to a total volume of 4.0 mL for strong cation exchange (SCX) chromatography. […] The desalted peptide from each SCX fraction was dried by speed vacuuming centrifugation and then analyzed by nanoLC hybrid mass spectrometry. […] MS/MS mass spectra were analyzed in continuous flow mode with a […] I.D. fused silica tip. MS/MS spectra were analyzed against rat.fasta databases from NCBI by ProQUANT 2.0 (Applied Biosystems/MDS Sciex, Foster City, Calif., U.S.A.). […] Relative quantification of peptide was performed on the MS/MS scans, using ratio of the areas under the peaks. […]

CN(C)N=O [DMN, Dimethylnitrosamine]
Fibrinogen protein expression: up-regulated
